Where two headings read alike, the source gives them in different places.
How the values were obtained:
[1] = test system: Clostridium difficile-associated diarrhea (CDAD); conditions: stated for vancomycin and metronidazole treatments together; cited from earlier work
Source text: Despite having a clinical response rate of ~73 to 85%, vancomycin and metronidazole treatments are associated with recurrent CDAD in up to 45% of patients. Aggressive vancomycin and metronidazole treatment is also associated with disruption of the intestinal microbiota and can promote colonization by vancomycin-resistant enterococci, highlighting the need for novel treatment options. An ideal agent for the treatment of CDAD should be associated with low levels of systemic absorption, resulting in high concentrations of the drug in the colon, combined with a narrow spect ...

[2] = MAD, 500 mg BID oral, plasma, LC/MS/MS, LLOQ 1 ng/mL, median (range)
Procedure: (§1) Subjects were dosed BID, once in the morning and once in the evening, for 14 consecutive days, with at least 8 ounces of water and approximately 1 h after breakfast and 1 h after dinner.
(§2) During the MAD study, serial plasma samples for PK analysis were collected predose and at 30 min, 3, 6, and 9 h after the morning dose on days 1 and 14, and before the morning dose on days 4, 7, 10, and 12 (trough levels). […] Samples were analyzed using the same bioanalytical LC/MS/MS method as in the SAD study (LLOQ of 1 ng/mL).
(§3) Plasma PK parameters were calculated using standard noncompartmental methods in a validated version of WinNonlin (version 5.2, Pharsight, Mountain View, CA, USA). All concentrations that were below the LLOQ prior to the first detectable concentration were assigned a value of 0. All concentrations that were below the LLOQ after the first quantifiable concentration were designated as missing and replaced with a period. Actual sample collection times were used in the analysis of the concentration versus time profiles for individual subjects. Integration of plasma concentrations versus time was conducted using the linear-up, log-down function in WinNonlin. The following parameters were determined: maximum plasma concentration (Cmax), time of Cmax (Tmax), area under the concentration-time curve (AUC) from 0 to last measurable plasma concentration (AUC0-t), AUC from 0 to infinity (AUC0-∞), percent of dose excreted in the urine, and terminal exponential half-life (t½).

C. difficile = test system: C. difficile; parameters: method as in PMID 22183166, PMID 22391542; conditions: cited from earlier work; for minimum inhibitory concentration at which 90% of the isolates were inhibited [MIC90]: in vitro, C. difficile isolates
clinical [3] = conditions: both, human, plasma, po, MAD, median (range); for AUC(0-t): AUC0–t; for Tmax: LLOQ 1 ng/mL
Procedure: as §1, §2, §3

[4] = not given; remark: listed apart in the source
[5] = rats; ref Yin N et al., ICAAC 2010, unpublished data; cited from earlier work
clinical [6] = conditions: both, human, plasma, po
Procedure: (§4) Randomization was assigned by blinded study personnel and stratified by gender to achieve an equal number of male and female subjects in each cohort. Subjects aged 18–49 years and 50–75 years were equally distributed in each dosing cohort.
(§5) Any subject receiving at least one full dose of the study drug was included in the PK analysis population. PK analysis during the SAD study was conducted on serial plasma samples collected predose and at 30 min, 1, 2, 4, 6, 8, 12, 24, 48, and 72 h after dosing, and analyzed using a validated liquid chromatography-tandem mass spectrometry (LC/MS/MS) method, with a lower limit of quantification (LLOQ) of 1 ng/mL. […] The samples were analyzed using an API 5000 triple quadrupole mass spectrometer (Applied Biosystems/ScieEx, Concord, ON, Canada) using electrospray ionization in positive ion mode. Analyst^TM software (version 1.4.2., Applied Biosystems, Foster City, CA, USA) was used for data acquisition. In total, 8 calibration solutions with a range of 1.00 ng/mL to 1000 ng/mL were used as internal standards in addition to a blank. Inter-assay bias was determined to be –2.6 to 2.5% with inter-assay precision of 3.9 to 9.4%.
as §3

[7] = after the first single oral dose, both SAD and MAD groups
Procedure: as §4, §5, §3

[8] = SAD, single oral dose, urine over a 7-day period, LC/MS/MS
Procedure: Any subject receiving at least one full dose of the study drug was included in the PK analysis population. PK analysis during the SAD study was conducted on serial plasma samples collected predose and at 30 min, 1, 2, 4, 6, 8, 12, 24, 48, and 72 h after dosing, and analyzed using a validated liquid chromatography-tandem mass spectrometry (LC/MS/MS) method, with a lower limit of quantification (LLOQ) of 1 ng/mL. Urine and stool samples were also collected during this period and analyzed using LC/MS/MS. Urine and feces were collected for 7 days after dose administration. The samples were analyzed using an API 5000 triple quadrupole mass spectrometer (Applied Biosystems/ScieEx, Concord, ON, Canada) using electrospray ionization in positive ion mode. […]
Plasma PK parameters were calculated using standard noncompartmental methods in a validated version of WinNonlin (version 5.2, Pharsight, Mountain View, CA, USA). […] All concentrations that were below the LLOQ after the first quantifiable concentration were designated as missing and replaced with a period. […] The following parameters were determined: maximum plasma concentration (Cmax), time of Cmax (Tmax), area under the concentration-time curve (AUC) from 0 to last measurable plasma concentration (AUC0-t), AUC from 0 to infinity (AUC0-∞), percent of dose excreted in the urine, and terminal exponential half-life (t½).

[9] = test system: initial and relapsing hamster CDAD; parameters: method as in PMID 22802252; conditions: given orally; potency similar to vancomycin; cited from earlier work
[10] = dogs; ref Yin N et al., ICAAC 2010, unpublished data; cited from earlier work
[11] = MAD, subjects who received surotomycin (n = 24)
[12] = 250 mg, 250 mg BID oral, day 1, LC/MS/MS, cohort n = 8
[13] = 1000 mg, 1000 mg BID oral, day 1, LC/MS/MS, cohort n = 8
[14] = SAD, of the 32 subjects who received surotomycin
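Wherever Back pain (TEAE) is given: human subjects dosed twice daily for 14 days, safety tracked through day 21 follow-up via reported adverse events, examinations, vital signs, ECG and laboratory tests.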
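Wherever Diarrhea (TEAE) is given: single ascending dose cohorts, safety followed through day 8 via observed or reported adverse events, physical exam, vital signs, ECG and laboratory tests, all dosed subjects analysed.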
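Wherever General disorders and administration- site conditions (TEAE) is given: human subjects dosed twice daily for 14 days, safety tracked through day 21 follow-up via reported adverse events, examinations, vital signs, ECG and laboratory tests.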
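Wherever Headache (TEAE) is given: human subjects dosed twice daily for 14 days, safety tracked through day 21 follow-up via reported adverse events, examinations, vital signs, ECG and laboratory tests.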
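Wherever Investigations (TEAE) is given: single ascending dose cohorts, safety followed through day 8 via observed or reported adverse events, physical exam, vital signs, ECG and laboratory tests, all dosed subjects analysed.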
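Wherever Musculoskeletal and connective tissue disorders (TEAE) is given: human subjects dosed twice daily for 14 days, safety tracked through day 21 follow-up via reported adverse events, examinations, vital signs, ECG and laboratory tests.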
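Wherever Transaminase increased (TEAE) is given: single ascending dose cohorts, safety followed through day 8 via observed or reported adverse events, physical exam, vital signs, ECG and laboratory tests, all dosed subjects analysed.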
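Wherever serious AEs is given: single ascending dose cohorts, safety followed through day 8 via observed or reported adverse events, physical exam, vital signs, ECG and laboratory tests, all dosed subjects analysed.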

Cc1ncc([N+](=O)[O-])n1CCO [metronidazole]
recurrent CDAD, share of patients [1]: up to 45%

CCCCCc1ccc(/C(C)=C/C(=O)N[C@@H](Cc2c[nH]c3ccccc23)C(=O)N[C@H](CC(N)=O)C(=O)N[C@@H](CC(=O)O)C(=O)N[C@@H]2C(=O)NCC(=O)N[C@@H](CCCN)C(=O)N[C@@H](CC(=O)O)C(=O)N[C@H](C)C(=O)N[C@@H](CC(=O)O)C(=O)NCC(=O)N[C@H](CO)C(=O)N[C@@H]([C@H](C)CC(=O)O)C(=O)N[C@@H](CC(=O)c3ccccc3N)C(=O)O[C@@H]2C)cc1 [surotomycin]
Tmax ([2]; day 1, cohort n = 8): 6.0 (6.0–9.0) h
Tmax ([2]; day 14 morning dose): 6.0 (0.0–9.0) h
At least one TEAE (MAD 250 mg BID (n = 8)): 4 (50.0) n (%)
Back pain (TEAE) (MAD 250 mg BID (n = 8)): 1 (12.5) n (%)
Gastrointestinal disorders (TEAE) (MAD 250 mg BID (n = 8)): 2 (25.0) n (%)
General disorders and administration- site conditions (TEAE) (MAD 250 mg BID (n = 8)): 0 n (%)
Headache (TEAE) (MAD 250 mg BID (n = 8)): 1 (12.5) n (%)
Infections and infestations (TEAE) (MAD 250 mg BID (n = 8)): 0 n (%)
Musculoskeletal and connective tissue disorders (TEAE) (MAD 250 mg BID (n = 8)): 2 (25.0) n (%)
Nervous system disorders (TEAE) (MAD 250 mg BID (n = 8)): 2 (25.0) n (%)
Oropharyngeal pain (TEAE) (MAD 250 mg BID (n = 8)): 0 n (%)
Pruritus (TEAE) (MAD 250 mg BID (n = 8)): 0 n (%)
Respiratory, thoracic, and mediastinal disorders (TEAE) (MAD 250 mg BID (n = 8)): 0 n (%)
Skin and subcutaneous tissue disorders (TEAE) (MAD 250 mg BID (n = 8)): 0 n (%)
At least one TEAE (MAD 500 mg BID (n = 8)): 6 (75.0) n (%)
Back pain (TEAE) (MAD 500 mg BID (n = 8)): 1 (12.5) n (%)
Gastrointestinal disorders (TEAE) (MAD 500 mg BID (n = 8)): 0 n (%)
General disorders and administration- site conditions (TEAE) (MAD 500 mg BID (n = 8)): 0 n (%)
Headache (TEAE) (MAD 500 mg BID (n = 8)): 1 (12.5) n (%)
Infections and infestations (TEAE) (MAD 500 mg BID (n = 8)): 1 (12.5) n (%)
Musculoskeletal and connective tissue disorders (TEAE) (MAD 500 mg BID (n = 8)): 2 (25.0) n (%)
Nervous system disorders (TEAE) (MAD 500 mg BID (n = 8)): 1 (12.5) n (%)
Oropharyngeal pain (TEAE) (MAD 500 mg BID (n = 8)): 1 (12.5) n (%)
Pruritus (TEAE) (MAD 500 mg BID (n = 8)): 1 (12.5) n (%)
Respiratory, thoracic, and mediastinal disorders (TEAE) (MAD 500 mg BID (n = 8)): 2 (25.0) n (%)
Skin and subcutaneous tissue disorders (TEAE) (MAD 500 mg BID (n = 8)): 1 (12.5) n (%)
At least one TEAE (MAD 1000 mg BID (n = 8)): 5 (62.5) n (%)
Back pain (TEAE) (MAD 1000 mg BID (n = 8)): 0 n (%)
Gastrointestinal disorders (TEAE) (MAD 1000 mg BID (n = 8)): 2 (25.0) n (%)
General disorders and administration- site conditions (TEAE) (MAD 1000 mg BID (n = 8)): 2 (25.0) n (%)
Headache (TEAE) (MAD 1000 mg BID (n = 8)): 0 n (%)
Infections and infestations (TEAE) (MAD 1000 mg BID (n = 8)): 1 (12.5) n (%)
Musculoskeletal and connective tissue disorders (TEAE) (MAD 1000 mg BID (n = 8)): 0 n (%)
Nervous system disorders (TEAE) (MAD 1000 mg BID (n = 8)): 2 (25.0) n (%)
Oropharyngeal pain (TEAE) (MAD 1000 mg BID (n = 8)): 1 (12.5) n (%)
Pruritus (TEAE) (MAD 1000 mg BID (n = 8)): 1 (12.5) n (%)
Respiratory, thoracic, and mediastinal disorders (TEAE) (MAD 1000 mg BID (n = 8)): 2 (25.0) n (%)
Skin and subcutaneous tissue disorders (TEAE) (MAD 1000 mg BID (n = 8)): 1 (12.5) n (%)
discontinuation due to AEs (MAD, 500 mg BID, transient moderate anxiety and mild dyspnea 2 h after the 5th dose): One subject
tolerability (MAD, 250, 500, 1000 mg BID): well tolerated
severity of reported AEs (MAD, 250, 500, 1000 mg BID for 14 days): mild to moderate
relation of reported AEs to study drug (MAD, all reported AEs): unrelated to the study drug
headache (MAD, of the 24 subjects who received surotomycin): 2 (8.3%) n (%)
back pain [11]: 2 (8.3%) n (%)
constipation [11]: 2 (8.3%) n (%)
oropharyngeal pain [11]: 2 (8.3%) n (%)
pruritus [11]: 2 (8.3%) n (%)
in vitro potency relative to vancomycin (C. difficile; against C. difficile, by MIC90): fourfold greater
minimum inhibitory concentration at which 90% of the isolates were inhibited [MIC90] (C. difficile): 0.5 µg/mL
AUC(0-t) (clinical [3]; 250 mg, 250 mg BID oral, day 1, 0 to last measurable concentration, cohort n = 8): 41.2 ng·h/mL
AUC(0-t) (clinical [3]; 250 mg, 250 mg BID oral, day 14, 0 to last measurable concentration): 274 ng·h/mL
Cmax (clinical [3]; [12]): 6.8 ng/mL
Cmax (clinical [3]; 250 mg, 250 mg BID oral, day 14, LC/MS/MS): 25.5 ng/mL
Tmax (clinical [3]; [12]): 9 h
Tmax (clinical [3]; 250 mg, 250 mg BID oral, day 14 morning dose, LC/MS/MS): 4.5 h
AUC(0-t) (clinical [3]; 500 mg, 500 mg BID oral, day 1, 0 to last measurable concentration, cohort n = 8): 49.4 ng·h/mL
AUC(0-t) (clinical [3]; 500 mg, 500 mg BID oral, day 14, 0 to last measurable concentration): 313 ng·h/mL
Cmax (clinical [3]; 500 mg, 500 mg BID oral, day 1, LC/MS/MS, cohort n = 8): 11 ng/mL
Cmax (clinical [3]; 500 mg, 500 mg BID oral, day 14, LC/MS/MS): 37.6 ng/mL
AUC(0-t) (clinical [3]; 1000 mg, 1000 mg BID oral, day 1, 0 to last measurable concentration, cohort n = 8): 118 ng·h/mL
AUC(0-t) (clinical [3]; 1000 mg, 1000 mg BID oral, day 14, 0 to last measurable concentration): 771 ng·h/mL
Cmax (clinical [3]; [13]): 21 ng/mL
Cmax (clinical [3]; 1000 mg, 1000 mg BID oral, day 14, LC/MS/MS): 93.5 ng/mL
Tmax (clinical [3]; [13]): 7.5 h
Tmax (clinical [3]; 1000 mg, 1000 mg BID oral, day 14 morning dose, LC/MS/MS): 1.8 h
At least one TEAE ([4]; SAD 500 mg (n = 8)): 3 (37.5) n (%)
Diarrhea (TEAE) ([4]; SAD 500 mg (n = 8)): 1 (12.5) n (%)
Gastrointestinal disorders (TEAE) ([4]; SAD 500 mg (n = 8)): 2 (25.0) n (%)
Infections and infestations (TEAE) ([4]; SAD 500 mg (n = 8)): 0 n (%)
Investigations (TEAE) ([4]; SAD 500 mg (n = 8)): 0 n (%)
Transaminase increased (TEAE) ([4]; SAD 500 mg (n = 8)): 0 n (%)
At least one TEAE ([4]; SAD 1000 mg (n = 8)): 0 n (%)
Diarrhea (TEAE) ([4]; SAD 1000 mg (n = 8)): 0 n (%)
Gastrointestinal disorders (TEAE) ([4]; SAD 1000 mg (n = 8)): 0 n (%)
Infections and infestations (TEAE) ([4]; SAD 1000 mg (n = 8)): 0 n (%)
Investigations (TEAE) ([4]; SAD 1000 mg (n = 8)): 0 n (%)
Transaminase increased (TEAE) ([4]; SAD 1000 mg (n = 8)): 0 n (%)
At least one TEAE ([4]; SAD 2000 mg (n = 8)): 5 (62.5) n (%)
Diarrhea (TEAE) ([4]; SAD 2000 mg (n = 8)): 3 (37.5) n (%)
Gastrointestinal disorders (TEAE) ([4]; SAD 2000 mg (n = 8)): 3 (37.5) n (%)
Infections and infestations (TEAE) ([4]; SAD 2000 mg (n = 8)): 0 n (%)
Investigations (TEAE) ([4]; SAD 2000 mg (n = 8)): 1 (12.5) n (%)
Transaminase increased (TEAE) ([4]; SAD 2000 mg (n = 8)): 1 (12.5) n (%)
At least one TEAE ([4]; SAD 4000 mg (n = 8)): 3 (37.5) n (%)
Diarrhea (TEAE) ([4]; SAD 4000 mg (n = 8)): 1 (12.5) n (%)
Gastrointestinal disorders (TEAE) ([4]; SAD 4000 mg (n = 8)): 1 (12.5) n (%)
Infections and infestations (TEAE) ([4]; SAD 4000 mg (n = 8)): 2 (25.0) n (%)
Investigations (TEAE) ([4]; SAD 4000 mg (n = 8)): 1 (12.5) n (%)
Transaminase increased (TEAE) ([4]; SAD 4000 mg (n = 8)): 1 (12.5) n (%)
serious AEs ([4]; SAD group, none discontinued due to AEs): No serious AEs
treatment-related diarrhea ([4]; SAD, all surotomycin subjects (n = 32)): 5 (15.6%) n (%)
increased transaminases [4, 14]: 2 (6.3%) n (%)
subjects with AEs assessed as treatment-related [4, 14]: 9 (28.1%) n (%)
tolerability ([4]; SAD, single oral doses 500, 1000, 2000 or 4000 mg): well tolerated
severity of reported AEs ([4]; SAD, single oral doses 500-4000 mg): mild to moderate
bioavailability after oral administration [5]: very low
intestinal absorption [5]: < 1%
AUC(0-inf) (clinical [6]; 500 mg): 317 ng·h/mL
AUC(0-t) (clinical [6]; 500 mg): 260 ng·h/mL
Cmax (clinical [6]; 500 mg): 10.5 ng/mL
Tmax (clinical [6]; 500 mg): 6 h
half-life (clinical [6]; 500 mg): 18.3 h
AUC(0-inf) (clinical [6]; 1000 mg): 702 ng·h/mL
AUC(0-t) (clinical [6]; 1000 mg): 664 ng·h/mL
Cmax (clinical [6]; 1000 mg): 21.5 ng/mL
Tmax (clinical [6]; 1000 mg): 10 h
half-life (clinical [6]; 1000 mg): 21.1 h
AUC(0-inf) (clinical [6]; 2000 mg): 2080 ng·h/mL
AUC(0-t) (clinical [6]; 2000 mg): 1860 ng·h/mL
Cmax (clinical [6]; 2000 mg): 66.6 ng/mL
Tmax (clinical [6]; 2000 mg): 8 h
half-life (clinical [6]; 2000 mg): 16.3 h
AUC(0-inf) (clinical [6]; 4000 mg): 2570 ng·h/mL
AUC(0-t) (clinical [6]; 4000 mg): 2480 ng·h/mL
Cmax (clinical [6]; 4000 mg): 86.7 ng/mL
Tmax (clinical [6]; 4000 mg): 12 h
half-life (clinical [6]; 4000 mg): 14.8 h
time of peak median plasma concentration after the first dose [7]: 6 to 12 h
median cumulative amount of the administered dose recovered in the urine [8]: < 0.01%
efficacy against initial and relapsing hamster CDAD [9]: highly effective
intestinal absorption [10]: < 1%

CN[C@H](CC(C)C)C(=O)N[C@H]1C(=O)N[C@@H](CC(N)=O)C(=O)N[C@H]2C(=O)N[C@H]3C(=O)N[C@H](C(=O)N[C@H](C(=O)O)c4cc(O)cc(O)c4-c4cc3ccc4O)[C@H](O)c3ccc(c(Cl)c3)Oc3cc2cc(c3O[C@@H]2O[C@H](CO)[C@@H](O)[C@H](O)[C@H]2O[C@H]2C[C@](C)(N)[C@H](O)[C@H](C)O2)Oc2ccc(cc2Cl)[C@H]1O [vancomycin, reference compound]
recurrent CDAD, share of patients [1]: up to 45%
minimum inhibitory concentration at which 90% of the isolates were inhibited [MIC90] (C. difficile): 2.0 µg/mL

— publication PMC5368910 (BMC Pharmacology & Toxicology, 2017)
